Test results as given in US8815881B2 (Hoffmann-La Roche Inc., priority 2010, dated 2014).

Target: endogenous cellular BACE2 in the Ins1e rat cell line (Rattus norvegicus (Rat), UniProt Q6IE75)
Experiment: Assay for BACE inhibition by measuring cellular TMEM27 cleavage (ELISA of shed hTMEM27 from INS-TMEM27 cells)
Type: cell-based
Conditions: assay a): cellular TMEM27 cleavage, INS-TMEM27 cells (superscript a)
Source text: a) Assay for BACE Inhibition by Measuring Cellular TMEM27 Cleavage:
The assay uses the principle of inhibition of human TMEM27 cleavage by endogenous cellular BACE2 in the Ins1e rat cell line and shedding from the cell surface into the culture medium, followed by detection in an ELISA assay. Inhibition of BACE2 prevents the cleavage and shedding in a dose-dependent manner.
The stable cell line “INS-TMEM27” represents an INS1e-derived cell line with inducible expression (using the TetOn system) of full-length hTMEM27 in a doxycycline-dependent manner. The cells are cultured throughout the experiment in RPMI1640+Glutamax (Invitrogen) Penicillin/Streptomycin, 10% Fetal bovine serum, […], […], 100 micrograms/ml G418 and 100 microgram/ml hygromycin and are grown inadherent culture at 37° C. in a standard CO2 cell culture incubator.
INS-TMEM27 cells are seeded in 96-well plates. After 2 days in culture, BACE2 inhibitor is added in a range of concentrations as required by the assay and after a further two hours, doxycycline is added to a final concentration of 500 ng/ml. The cells are incubated for a further 46 hours and the supernatant harvested for detection of shed TMEM27.
An ELISA assay (using a pair of mouse anti-human-TMEM27 antibodies, raised against the extracellular domain of TMEM27) is used for detection of TMEM27 in the culture medium. An EC50 for BACE2 inhibition is calculated using the ELISA readout for each inhibitor concentration with standard curve-fitting software such as XLFit for the Excel spreadsheet program.

Sequence of endogenous cellular BACE2 in the Ins1e rat cell line (Q6IE75 63-514): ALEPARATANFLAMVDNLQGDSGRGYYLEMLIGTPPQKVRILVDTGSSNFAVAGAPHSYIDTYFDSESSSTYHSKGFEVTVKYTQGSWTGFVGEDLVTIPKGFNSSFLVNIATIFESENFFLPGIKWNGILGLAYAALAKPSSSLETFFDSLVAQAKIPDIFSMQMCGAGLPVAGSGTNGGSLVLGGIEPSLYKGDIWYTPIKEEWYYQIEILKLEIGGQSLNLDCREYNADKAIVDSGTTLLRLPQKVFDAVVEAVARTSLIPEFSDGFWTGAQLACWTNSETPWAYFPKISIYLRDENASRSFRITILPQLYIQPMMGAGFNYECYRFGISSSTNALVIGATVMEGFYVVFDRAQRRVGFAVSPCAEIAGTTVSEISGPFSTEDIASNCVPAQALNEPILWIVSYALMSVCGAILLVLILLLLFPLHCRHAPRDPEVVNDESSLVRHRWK

IC50	Structure (SMILES)
76 nM	CN1C(=O)C(C)(C)[C@@](C)(c2cc(NCCC(F)(F)F)ccc2F)N=C1N [Example 54, (S)-2-Amino-6-(2-fluoro-5-(3,3,3-trifluoropropylamino)phenyl)-3,5,5,6-tetramethyl-5,6-dihydropyrimidin-4(3H)-one]
322 nM	CCNc1ccc(F)c([C@@]2(C)N=C(N)N(C)C(=O)C2(C)C)c1 [Example 91, (S)-2-Amino-6-(5-ethylamino-2-fluoro-phenyl)-3,5,5,6-tetramethyl-5,6-dihydro-3H-pyrimidin-4-one]
12 nM	CN1C(=O)C(C)(C)[C@@](C)(c2cc(Nc3ccccn3)ccc2F)N=C1N [Example 105, (S)-2-Amino-6-(2-fluoro-5-(pyridin-2-ylamino)phenyl)-3,5,5,6-tetramethyl-5,6-dihydropyrimidin-4(3H)-one]
11 nM	CN1C(=O)C(C)(C)[C@@](C)(c2cc(NC3CCCOC3)ccc2F)N=C1N (stereo partly drawn) [Example 45, (S)-2-Amino-6-[2-fluoro-5-(tetrahydro-pyran-3-ylamino)-phenyl]-3,5,5,6-tetramethyl-5,6-dihydro-3H-pyrimidin-4-one]
14 nM	CN1C(=O)C(C)(C)[C@@](C)(c2cc(Nc3cc(F)ccc3F)ccc2F)N=C1N [Example 145, (S)-2-Amino-6-[5-(2,5-difluoro-phenylamino)-2-fluoro-phenyl]-3,5,5,6-tetramethyl-5,6-dihydro-3H-pyrimidin-4-one]
45 nM	CN1C(=O)C(C)(C)[C@@](C)(c2cc(NC3CCCN(Cc4ccccc4)C3)ccc2F)N=C1N (stereo partly drawn) [Example 44, (S)-2-Amino-6-[5-(1-benzyl-piperidin-3-ylamino)-2-fluoro-phenyl]-3,5,5,6-tetramethyl-5,6-dihydro-3H-pyrimidin-4-one]
2 nM	CN1C(=O)C(C)(C)[C@@](C)(c2cc(Nc3ccc(C#N)cc3F)ccc2F)N=C1N [Example 152, (S)-4-(3-(2-Amino-1,4,5,5-tetramethyl-6-oxo-1,4,5,6-tetrahydropyrimidin-4-yl)-4-fluorophenylamino)-3-fluorobenzonitrile]
391 nM	Cc1cn[nH]c1CNc1ccc(F)c([C@@]2(C)N=C(N)N(C)C(=O)C2(C)C)c1 [Example 110, (S)-2-Amino-6-{2-fluoro-5-[(4-methyl-2H-pyrazol-3-ylmethyl)-amino]-phenyl}-3,5,5,6-tetramethyl-5,6-dihydro-3H-pyrimidin-4-one]
43 nM	CN1C(=O)C(C)(C)[C@@](C)(c2cc(NC(=O)CC3CC3)ccc2F)N=C1N [Example 28, (S)—N-(3-(2-amino-1,4,5,5-tetramethyl-6-oxo-1,4,5,6-tetrahydropyrimidin-4-yl)-4-fluorophenyl)-2-cyclopropylacetamide]
15 nM	CN1C(=O)C(C)(C)[C@@](C)(c2cc(NCC3CCOC3)ccc2F)N=C1N (stereo partly drawn) [Example 76, (S)-2-Amino-6-{2-fluoro-5-[(tetrahydro-furan-3-ylmethyl)-amino]phenyl}-3,5,5,6-tetramethyl-5,6-dihydro-3H-pyrimidin-4-one]
236 nM	CN1C(=O)C(C)(C)[C@@](C)(c2cc(NCc3ccon3)ccc2F)N=C1N [Example 86, (S)-2-Amino-6-{2-fluoro-5-[(isoxazol-3-ylmethyl)-amino]phenyl}-3,5,5,6-tetramethyl-5,6-dihydro-3H-pyrimidin-4-one]

Second part, the molecule before the results:

Structure (SMILES)	IC50
CN1C(=O)C(C)(C)[C@@](C)(c2cc(NC3CCOC3)ccc2F)N=C1N (stereo partly drawn) [Example 22, (S)-2-Amino-6-[2-fluoro-5-(tetrahydro-furan-3-ylamino)-phenyl]-3,5,5,6-tetramethyl-5,6-dihydro-3H-pyrimidin-4-one]	5 nM
CN1C(=O)C(C)(C)[C@@](C)(c2cc(NC(=O)C(C)(O)c3ccccc3)ccc2F)N=C1N (stereo partly drawn) [Example 139, N-[3-((S)-2-Amino-1,4,5,5-tetramethyl-6-oxo-1,4,5,6-tetrahydro-pyrimidin-4-yl)-4-fluoro-phenyl]-2-hydroxy-2-phenyl-propionamide]	31 nM
CC(Nc1ccc(F)c([C@@]2(C)N=C(N)N(C)C(=O)C2(C)C)c1)c1ccccn1 (some centres unmarked) [Example 40]	21 nM
CN1C(=O)C(C)(C)[C@@](C)(c2cc(NC3CCCC3C#N)ccc2F)N=C1N (stereo partly drawn) [Example 135, 2-[3-((S)-2-Amino-1,4,5,5-tetramethyl-6-oxo-1,4,5,6-tetrahydro-pyrimidin-4-yl)-4-fluoro-phenylamino]-cyclopentanecarbonitrile]	1 nM
CC(=O)N1CC(Nc2ccc(F)c([C@@]3(C)N=C(N)N(C)C(=O)C3(C)C)c2)c2ccc(F)cc21 (stereo partly drawn) [Example 137, (S)-6-[5-(1-Acetyl-6-fluoro-2,3-dihydro-1H-indol-3-ylamino)-2-fluoro-phenyl]-2-amino-3,5,5,6-tetramethyl-5,6-dihydro-3H-pyrimidin-4-one]	124 nM
CN1C(=O)C(C)(C)[C@@](C)(c2cc(NC(=O)C(C(F)(F)F)C(F)(F)F)ccc2F)N=C1N [Example 7, N-[3-((S)-2-Amino-1,4,5,5-tetramethyl-6-oxo-1,4,5,6-tetrahydro-pyrimidin-4-yl)-4-fluoro-phenyl]-3,3,3-trifluoro-2-trifluoromethyl-propionamide]	1010 nM
CN1C(=O)C(C)(C)[C@@](C)(c2cc(Nc3cccnc3)ccc2F)N=C1N [Example 138, (S)-2-Amino-6-(2-fluoro-5-(pyridin-3-ylamino)phenyl)-3,5,5,6-tetramethyl-5,6-dihydropyrimidin-4(3H)-one]	500 nM
CN1C(=O)C(C)(C)[C@@](C)(c2cc(NCc3cc[nH]n3)ccc2F)N=C1N [Example 61, (S)-2-Amino-6-{2-fluoro-5-[(1H-pyrazol-3-ylmethyl)-amino]-phenyl}-3,5,5,6-tetramethyl-5,6-dihydro-3H-pyrimidin-4-one]	59 nM
Cc1cc(CNc2ccc(F)c([C@@]3(C)N=C(N)N(C)C(=O)C3(C)C)c2)no1 [Example 104, (S)-2-Amino-6-{2-fluoro-5-[(5-methyl-isoxazol-3-ylmethyl)-amino]-phenyl}-3,5,5,6-tetramethyl-5,6-dihydro-3H-pyrimidin-4-one]	4 nM
CN1C(=O)C(C)(C)[C@@](C)(c2cc(NC3CCc4cc(Cl)ccc43)ccc2F)N=C1N (stereo partly drawn) [Example 29, (S)-2-Amino-6-[5-(5-chloro-indan-1-ylamino)-2-fluoro-phenyl]-3,5,5,6-tetramethyl-5,6-dihydro-3H-pyrimidin-4-one]	32 nM
Cc1nc(CNc2ccc(F)c([C@@]3(C)N=C(N)N(C)C(=O)C3(C)C)c2)co1 [Example 109, (S)-2-Amino-6-{2-fluoro-5-[(2-methyl-oxazol-4-ylmethyl)-amino]-phenyl}-3,5,5,6-tetramethyl-5,6-dihydro-3H-pyrimidin-4-one]	45 nM
CN1C(=O)C(C)(C)[C@@](C)(c2cc(NC(=O)C(C)(O)c3ccc(Cl)cc3)ccc2F)N=C1N (stereo partly drawn) [Example 141, N-[3-((S)-2-Amino-1,4,5,5-tetramethyl-6-oxo-1,4,5,6-tetrahydro-pyrimidin-4-yl)-4-fluoro-phenyl]-2-(4-chloro-phenyl)-2-hydroxy-propionamide]	332 nM
CCOC(=O)CC1CCC(Nc2ccc(F)c([C@@]3(C)N=C(N)N(C)C(=O)C3(C)C)c2)C1(C)C (stereo partly drawn) [Example 98, {3-[3-((S)-2-Amino-1,4,5,5-tetramethyl-6-oxo-1,4,5,6-tetrahydro-pyrimidin-4-yl)-4-fluoro-phenylamino]-2,2-dimethyl-cyclopentyl}-acetic acid ethyl ester]	57 nM
CN1C(=O)C(C)(C)[C@@](C)(c2cc(NC3CCOCC3)ccc2F)N=C1N [Example 50, (S)-2-Amino-6-[2-fluoro-5-(tetrahydro-pyran-4-ylamino)-phenyl]-3,5,5,6-tetramethyl-5,6-dihydro-3H-pyrimidin-4-one]	21.8 nM
COc1ccc(C(F)(F)F)cc1Nc1ccc(F)c([C@@]2(C)N=C(N)N(C)C(=O)C2(C)C)c1 [Example 121, (S)-2-Amino-6-(2-fluoro-5-(2-methoxy-5-(trifluoromethyl)phenylamino)phenyl)-3,5,5,6-tetramethyl-5,6-dihydropyrimidin-4(3H)-one]	9 nM
CN1C(=O)C(C)(C)[C@@](C)(c2cc(NC(=O)C3(O)CCC3)ccc2F)N=C1N [Example 147, (S)—N-(3-(2-amino-1,4,5,5-tetramethyl-6-oxo-1,4,5,6-tetrahydropyrimidin-4-yl)-4-fluorophenyl)-1-hydroxycyclobutanecarboxamide]	269 nM
CN1C(=O)C(C)(C)[C@@](C)(c2cc(NC3CS(=O)(=O)c4ccccc43)ccc2F)N=C1N (stereo partly drawn) [Example 144, (S)-2-Amino-6-[5-(1,1-dioxo-2,3-dihydro-1H-1-benzo[b]thiophen-3-ylamino)-2-fluoro-phenyl]-3,5,5,6-tetramethyl-5,6-dihydro-3H-pyrimidin-4-one]	3 nM
C[C@@]1(c2cccc(NC(=O)C3(C(F)(F)F)CC3)c2)CC(=O)N(CC2CC2)C(N)=N1 [Example 13, 1-Trifluoromethyl-cyclopropanecarboxylic acid [3-((S)-2-amino-1-c-cyclopropylmethyl-4-methyl-6-oxo-1,4,5,6-tetrahydro-pyrimidin-4-yl)-phenyl]-amide]	190 nM
